Data taken from article PMC8400955 (Pharmaceuticals, 2021).

Legend:
CYP2C9 = CYP2C9 (Homo sapiens, UniProt P11712); experiment: CYP inhibition in human liver microsomes, CYP2C9; type: in vitro ADME; settings: HLM, marker substrate Diclofenac
Protocol: . The inhibition of CYP2B6 and 3A4 (when midazolam was used as the substrate) by ZB716 was not observed. The inhibitory potential of ZB716 on human CYP enzyme activities appears relatively low.
The final concentrations of ZB716 in the incubation system were 0, 0.05, 0.15, 0.5, 1.5, 5, and 15 µM (final organic solvent concentration ≤ 1%). […] . […] The concentrations of the isoform-specific metabolites derived from marker substrates were measured by UPLC–MS/MS. The IC50 values were calculated from the percentages of the rate of the metabolite formation relative to non-inhibited controls vs. the concentrations of ZB716 or positive control inhibitors. All incubations were performed in triplicate. The mean of the enzyme activity (% of non-inhibited control) for each concentration was plotted against the log inhibitor concentration, and fitted to an IC50 curve.

rat plasma proteins = experiment: Plasma protein binding by equilibrium dialysis, rat; type: in vitro ADME; settings: for Remaining: 6 h
Protocol: (§1) The in vitro binding of ZB716 to plasma proteins was determined by equilibrium dialysis technique in mouse, rat, dog, monkey, and human plasma (EDTA-K2 as anticoagulant), over the concentration range of 0.1–10 μM. The free concentration of ZB716 was below the lower limit of quantitation at 0.1, 1, and 10 μM in human, monkey, dog, rat, and mouse plasma.
(§2) The equilibrium dialysis method was used to investigate the in vitro binding of ZB716 to human, monkey, dog, rat, and mouse plasma proteins. The dialysis phosphate buffer solution (100 mM, pH 7.4) and plasma samples containing 0.1, 1, and 10 μM of ZB716 were added to separate chambers of dialysis wells of the HTDialysis device. The dialysis plate was placed in an incubator at 37 °C with 5% CO2 at approximately 100 rpm for 6 h. After incubation, the seal was removed, and 50 μL each of post-dialysis samples was pipetted from both the buffer and plasma chambers into fresh 96-well plates. The samples were analyzed via UPLC–MS/MS. The bound fraction, unbound fraction, recovery (%), and remaining (%) were calculated by Equations (2)–(5):%Unbound = (Conc.buffer chamber/Conc.plasma chamber) × 100(2) %Bound = 100% − %Unbound (3) %Recovery = (Conc.buffer chamber + Conc.plasma chamber)/Conc.Total sample × 100 (4) %Remaining = Conc.6h/Conc.0h × 100 (5)

[1] = as above; type: in vitro ADME; settings: plasma (EDTA-K2 as anticoagulant)
Protocol: as §1, §2

CYP2A6 = CYP2A6 (Homo sapiens, UniProt P11509); experiment: CYP phenotyping, recombinant CYP2A6
CYP3A4 = experiment: CYP induction (enzyme activity) in cryopreserved human hepatocytes, CYP3A4; type: in vitro ADME; settings: for fold induction at 72 h, 0.15 µM / fold induction at 72 h, 1.5 µM / fold induction at 72 h, 5 µM / fold induction at 72 h, 15 µM: human, plated cryopreserved human hepatocytes
[2] = Metabolic stability in rat hepatocytes; type: in vitro ADME
Protocol: (§3) Hepatocytes of humans (#X008001), dogs (#M00205), rats (#M00005), and mice (#M005052) were purchased from BioIVT, NY, USA. Monkey hepatocytes were procured from RILD, Shanghai, China. The metabolic stability of ZB716 in human, monkey, dog, rat and mouse hepatocytes was investigated by incubating ZB716 with human, monkey, dog, rat, and mouse hepatocytes (0.5 × 10^6 cells/mL), or with incubation medium only.
(§4) parent disappearance vs. incubation time curve.
(§5) Scaled-up Clint = kV/N × Scaling Factor
(§6) metabolite formed during the reaction.

rat hepatocytes = experiment: Metabolic stability in rat hepatocytes; type: in vitro ADME; settings: 1 μM
Protocol: as §3, §4, §5, §6

dog plasma proteins = experiment: Plasma protein binding by equilibrium dialysis, dog; type: in vitro ADME; settings: for Remaining: 6 h
Protocol: as §1, §2

[3] = as above; type: in vitro ADME; settings: plasma (EDTA-K2 as anticoagulant)
Protocol: as §1, §2

[4] = Plasma protein binding by equilibrium dialysis, human; type: in vitro ADME; settings: plasma (EDTA-K2 as anticoagulant)
Protocol: as §1, §2

human plasma proteins = experiment: as above; type: in vitro ADME; settings: for Remaining: 6 h
Protocol: as §1, §2

Sequence of CYP2A6 (P11509 whole entry): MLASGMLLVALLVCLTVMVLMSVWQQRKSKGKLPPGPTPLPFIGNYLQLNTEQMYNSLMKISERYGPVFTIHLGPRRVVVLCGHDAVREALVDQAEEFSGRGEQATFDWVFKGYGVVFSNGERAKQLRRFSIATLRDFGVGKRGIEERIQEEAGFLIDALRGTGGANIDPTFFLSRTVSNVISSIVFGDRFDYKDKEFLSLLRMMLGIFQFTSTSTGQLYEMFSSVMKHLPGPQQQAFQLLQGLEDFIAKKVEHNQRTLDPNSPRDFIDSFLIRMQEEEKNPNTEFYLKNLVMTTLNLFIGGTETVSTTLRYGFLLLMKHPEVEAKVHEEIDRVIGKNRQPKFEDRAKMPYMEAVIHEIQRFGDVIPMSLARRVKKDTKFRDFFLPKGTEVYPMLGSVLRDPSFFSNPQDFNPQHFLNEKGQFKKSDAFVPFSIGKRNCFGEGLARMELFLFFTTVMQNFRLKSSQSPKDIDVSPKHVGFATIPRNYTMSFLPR
Sequence of CYP2C9 (P11712 whole entry): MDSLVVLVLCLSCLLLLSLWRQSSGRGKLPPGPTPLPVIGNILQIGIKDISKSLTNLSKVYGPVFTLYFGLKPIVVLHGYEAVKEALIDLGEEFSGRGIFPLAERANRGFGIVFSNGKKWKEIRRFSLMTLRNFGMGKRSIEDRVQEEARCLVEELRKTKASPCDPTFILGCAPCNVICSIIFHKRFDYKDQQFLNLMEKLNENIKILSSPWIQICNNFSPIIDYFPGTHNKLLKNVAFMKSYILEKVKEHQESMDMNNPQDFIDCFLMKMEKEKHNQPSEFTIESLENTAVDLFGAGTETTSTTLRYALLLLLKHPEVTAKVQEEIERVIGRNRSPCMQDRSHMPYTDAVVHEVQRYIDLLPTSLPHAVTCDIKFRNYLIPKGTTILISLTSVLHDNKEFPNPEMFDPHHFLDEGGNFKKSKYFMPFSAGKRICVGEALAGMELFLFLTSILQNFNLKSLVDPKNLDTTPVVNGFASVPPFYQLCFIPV

Question: For `C[C@]12CC[C@@H]3c4ccc(B(O)O)cc4C[C@@H](CCCCCCCCC[S+]([O-])CCCC(F)(F)C(F)(F)F)[C@H]3[C@@H]1CC[C@@H]2O` (some centres unmarked) [ZB716, fulvestrant-3-boronic acid], which IC50 (CYP2C9) is on record?
Answer: Its IC50 is 4.77 µM.

Question: And the Bound (rat plasma proteins; 0.1 μM)?
Answer: Its Bound is >97.7%.

Question: What about the Unbound (rat plasma proteins; 0.1 μM) of the same compound?
Answer: The Unbound was <2.35%.

Question: And the Remaining (rat plasma proteins; 0.1 μM)?
Answer: The Remaining was 83.9 ± 8.2%.

Question: What about the Bound (rat plasma proteins; 1 μM) of the same compound?
Answer: The Bound was >99.8%.

Question: And the Unbound (rat plasma proteins; 1 μM)?
Answer: Its Unbound is <0.216%.

Question: And the Remaining (rat plasma proteins; 1 μM)?
Answer: The Remaining was 91.1 ± 2.1%.

Question: What about the Bound (rat plasma proteins; 10 μM) of the same compound?
Answer: The Bound was >99.97%.

Question: What about the Unbound (rat plasma proteins; 10 μM) of the same compound?
Answer: The Unbound was <0.0281%.

Question: What about the Remaining (rat plasma proteins; 10 μM) of the same compound?
Answer: Its Remaining is 84.7 ± 2.0%.

Question: And the recovery at 6 h, 0.1 μM ([1]; pH 7.4, 0.1 μM)?
Answer: The recovery at 6 h, 0.1 μM was < 94.4%.

Question: And the recovery at 6 h, 1 μM ([1]; pH 7.4, 1 μM)?
Answer: Its recovery at 6 h, 1 μM is < 94.9%.

Question: What about the recovery at 6 h, 10 μM ([1]; pH 7.4, 10 μM) of the same compound?
Answer: The recovery at 6 h, 10 μM was < 82.1%.

Question: And the half-life at 2 µM (CYP2A6; human)?
Answer: Its half-life at 2 µM is 16.6 ± 0.6 min.

Question: What about the Clint (CYP2A6; recombinant CYP2A6, 2 µM ZB716) of the same compound?
Answer: Its Clint is 0.836 ± 0.028 µL/min/pmol CYP.

Question: And the “Percent of Control” value (CYP3A4; donor one, 0.15 µM)?
Answer: The value was −4.55%.

Question: And the “Percent of Control” value (CYP3A4; donor one, 1.5 µM)?
Answer: Its value is −7.08%.

Question: What about the “Percent of Control” value (CYP3A4; donor one, 5 µM) of the same compound?
Answer: The value was 4.85%.

Question: And the “Percent of Control” value (CYP3A4; donor one, 15 µM)?
Answer: The value was 9.95%.

Question: And the “Percent of Control” value (CYP3A4; donor three, 0.15 µM)?
Answer: The value was −5.29%.

Question: What about the “Percent of Control” value (CYP3A4; donor three, 1.5 µM) of the same compound?
Answer: The value was −2.34%.

Question: What about the “Percent of Control” value (CYP3A4; donor three, 5 µM) of the same compound?
Answer: The value was −6.62%.

Question: And the “Percent of Control” value (CYP3A4; donor three, 15 µM)?
Answer: Its value is −9.26%.

Question: What about the “Percent of Control” value (CYP3A4; donor two, 0.15 µM) of the same compound?
Answer: Its value is −2.26%.

Question: And the “Percent of Control” value (CYP3A4; donor two, 1.5 µM)?
Answer: The value was 4.83%.

Question: What about the “Percent of Control” value (CYP3A4; donor two, 5 µM) of the same compound?
Answer: Its value is 22.4%.

Question: And the “Percent of Control” value (CYP3A4; donor two, 15 µM)?
Answer: Its value is 21.5%.

Question: What about the fold induction at 72 h, 0.15 µM (CYP3A4; donor one, 0.15 µM) of the same compound?
Answer: Its fold induction at 72 h, 0.15 µM is 0.774 ± 0.078.

Question: And the fold induction at 72 h, 1.5 µM (CYP3A4; donor one, 1.5 µM)?
Answer: The fold induction at 72 h, 1.5 µM was 0.649 ± 0.085.

Question: What about the fold induction at 72 h, 5 µM (CYP3A4; donor one, 5 µM) of the same compound?
Answer: Its fold induction at 72 h, 5 µM is 1.24 ± 0.18.

Question: What about the fold induction at 72 h, 15 µM (CYP3A4; donor one, 15 µM) of the same compound?
Answer: The fold induction at 72 h, 15 µM was 1.49 ± 0.21.

Question: What about the fold induction at 72 h, 0.15 µM (CYP3A4; donor three, 0.15 µM) of the same compound?
Answer: Its fold induction at 72 h, 0.15 µM is 0.61 ± 0.043.

Question: What about the fold induction at 72 h, 1.5 µM (CYP3A4; donor three, 1.5 µM) of the same compound?
Answer: The fold induction at 72 h, 1.5 µM was 0.828 ± 0.082.

Question: What about the fold induction at 72 h, 5 µM (CYP3A4; donor three, 5 µM) of the same compound?
Answer: Its fold induction at 72 h, 5 µM is 0.513 ± 0.081.

Question: And the fold induction at 72 h, 15 µM (CYP3A4; donor three, 15 µM)?
Answer: Its fold induction at 72 h, 15 µM is 0.318 ± 0.005.

Question: What about the fold induction at 72 h, 0.15 µM (CYP3A4; donor two, 0.15 µM) of the same compound?
Answer: Its fold induction at 72 h, 0.15 µM is 0.797 ± 0.1.

Question: And the fold induction at 72 h, 1.5 µM (CYP3A4; donor two, 1.5 µM)?
Answer: Its fold induction at 72 h, 1.5 µM is 1.43 ± 0.14.

Question: What about the fold induction at 72 h, 5 µM (CYP3A4; donor two, 5 µM) of the same compound?
Answer: Its fold induction at 72 h, 5 µM is 3.01 ± 0.33.

Question: And the fold induction at 72 h, 15 µM (CYP3A4; donor two, 15 µM)?
Answer: Its fold induction at 72 h, 15 µM is 2.92 ± 0.25.

Question: What about the half-life at 1 μM ([2]; read-out: Estimated In Vitro t1/2) of the same compound?
Answer: The half-life at 1 μM was 28.4 ± 0.9 min.

Question: And the hepatocyte CLint at 1 μM ([2]; read-out: In Vitro Clint)?
Answer: The hepatocyte CLint at 1 μM was 48.7 ± 1.5 µL/min/1e6 cells.

Question: What about the CLint scaled at 1 μM ([2]; read-out: Scaled-Up Clint) of the same compound?
Answer: The CLint scaled at 1 μM was 228 ± 7 mL/min/kg.

Question: And the “Remaining at 120 min” value (rat hepatocytes)?
Answer: Its value is 5.19 ± 0.32%.

Question: What about the Bound (dog plasma proteins; 0.1 μM) of the same compound?
Answer: The Bound was >95.6%.

Question: And the Remaining (dog plasma proteins; 0.1 μM)?
Answer: The Remaining was 39.1 ± 1.8%.

Question: And the Bound (dog plasma proteins; 1 μM)?
Answer: Its Bound is >99.6%.

Question: What about the Unbound (dog plasma proteins; 1 μM) of the same compound?
Answer: The Unbound was <0.373%.

Question: And the Remaining (dog plasma proteins; 1 μM)?
Answer: Its Remaining is 53.2 ± 4.4%.

Question: What about the Bound (dog plasma proteins; 10 μM) of the same compound?
Answer: The Bound was >99.96%.

Question: What about the Unbound (dog plasma proteins; 10 μM) of the same compound?
Answer: The Unbound was <0.0412%.

Question: What about the Remaining (dog plasma proteins; 10 μM) of the same compound?
Answer: Its Remaining is 65.2 ± 4.3%.

Question: And the recovery at 6 h, 0.1 μM ([3]; pH 7.4, 0.1 μM)?
Answer: Its recovery at 6 h, 0.1 μM is < 63.5%.

Question: And the recovery at 6 h, 1 μM ([3]; pH 7.4, 1 μM)?
Answer: The recovery at 6 h, 1 μM was < 64.9%.

Question: What about the recovery at 6 h, 10 μM ([3]; pH 7.4, 10 μM) of the same compound?
Answer: The recovery at 6 h, 10 μM was < 68.7%.

Question: And the recovery at 6 h, 0.1 μM ([4]; pH 7.4, 0.1 μM)?
Answer: Its recovery at 6 h, 0.1 μM is < 69.1%.

Question: What about the recovery at 6 h, 1 μM ([4]; pH 7.4, 1 μM) of the same compound?
Answer: Its recovery at 6 h, 1 μM is < 64%.

Question: What about the recovery at 6 h, 10 μM ([4]; pH 7.4, 10 μM) of the same compound?
Answer: The recovery at 6 h, 10 μM was < 74.7%.

Question: What about the Bound (human plasma proteins; 0.1 μM) of the same compound?
Answer: The Bound was >95.7%.

Question: What about the Unbound (human plasma proteins; 0.1 μM) of the same compound?
Answer: Its Unbound is <4.33%.

Question: And the Remaining (human plasma proteins; 0.1 μM)?
Answer: Its Remaining is 57.0 ± 7.7%.

Question: And the Bound (human plasma proteins; 1 μM)?
Answer: The Bound was >99.6%.

Question: And the Unbound (human plasma proteins; 1 μM)?
Answer: The Unbound was <0.392%.

Question: What about the Remaining (human plasma proteins; 1 μM) of the same compound?
Answer: The Remaining was 57.9 ± 4.9%.

Question: And the Bound (human plasma proteins; 10 μM)?
Answer: Its Bound is >99.96%.

Question: What about the Remaining (human plasma proteins; 10 μM) of the same compound?
Answer: The Remaining was 74.5 ± 3.4%.
